Converted amounts (≈) assume the structure as drawn. Like-named read-outs stand apart in the source and are kept apart here.
Experiments:
[1] = system: Salmonella paratyphi 1015; experiment: Antibacterial test, agar plate dilution method (MIC), standard strains; format: cell-based; settings: Salmonella enterica, MH agar, 37°C, 18 hours, read-out: MIC
Description: (§1) The antibacterial activities were tested by an agar plate dilution method in accordance with the standard method of The Japanese Chemotherapy Society [Chemotherapy, Vol. 29, 76-79 (1981)].
(§2) A Mueller-Hinton (MH) agar liquid medium of a test microorganism was cultured overnight at 37°C and the resultant culture medium was diluted with a buffered saline gelatin (BSG) solution to contain approximately 10⁶ cells of the test microorganisms per milliliter, and then the diluted solution was inoculated with a microplanter at the rate of approximately 5 microliters on a MH agar medium containing a test compound. This medium was then incubated at 37°C for 18 hours. The minimum inhibitory concentration (MIC) is determined as a minimum concentration in which no test microorganism could grow. It is noted here that the test organisms used were all standard strains.

[2] = system: Proteus mirabilis IFO3849; experiment: as above; format: cell-based; settings: Proteus mirabilis, IFO3849, 18 h
Description: as §1, §2

[3] = system: Pseudomonas aeruginosa IFO 3445; experiment: as above; format: cell-based; settings: IFO3445, MH agar, 37°C, 18 hours, read-out: MIC
Description: as §1, §2

[4] = system: Pseudomanas aeruginosa NCTC 10940; experiment: as above; format: cell-based; settings: 18 h, MH agar, 37°C, read-out: MIC
Description: as §1, §2

Salmonella typhi 901 = experiment: as above; format: cell-based; settings: Salmonella enterica, TYPHI, 18 h, MH agar, 37°C
Description: as §1, §2

[5] = system: Serratia marcescens IAM1184; experiment: as above; format: cell-based; settings: MH agar, 37°C
Description: as §1, §2

[6] = system: Morganella morganii IFO3848; experiment: as above; format: cell-based; settings: Morganella morganii, IFO3848, 18 h, MH agar, 37°C, read-out: MIC
Description: as §1, §2

[7] = system: Salmonella schottmuelleri 8006; experiment: as above; format: cell-based; settings: MH agar, 37°C, 18 hours, read-out: MIC
Description: as §1, §2

Proteus vulgaris HX-19 = experiment: as above; format: cell-based; settings: Proteus vulgaris, HX19, 18 h
Description: as §1, §2

[8] = system: Salmonella enteritidis G14; experiment: as above; format: cell-based; settings: Salmonella enterica, MH agar, 37°C
Description: as §1, §2

[9] = system: Providencia rettgeri IFO 3850; experiment: as above; format: cell-based; settings: Providencia rettgeri, IFO3850, 18 h, MH agar, 37°C, read-out: MIC
Description: as §1, §2

Proteus vulgaris OX-19 = experiment: as above; format: cell-based; settings: Proteus vulgaris, OX19, 18 h
Description: as §1, §2

[10] = system: P. aeruginosa resistant strains; experiment: Sensitivity test against clinical isolates, agar plate dilution method; format: cell-based; settings: 54 strains of P. aeruginosa having an anti-Pseudomonas resistance
Description: The test procedures were based on the agar plate dilution method in accordance with the standard method of The Japanese Chemotherapy Society. The minimum inhibitory concentration (MIC) was determined in substantially the same manner as the test procedures II above using the 54 strains of P. aeruginosa having an anti-Pseudomonas resistance.

[11] = molecular target: T1, Swine Kidney Dehydropeptidase-I (DHP-I) (Sus scrofa, UniProt P22412); experiment: Stability of test compounds against DHP-I by HPLC; format: in vitro ADME; settings: 37°C, Substrate Concentration: 100 μM
T1 construct: made soluble by treatment with butanol and purified by the ammonium sulfate fraction method, thereby producing DHP-I enzyme from a 75% ammonium sulfate fraction; from tissue; host or cells: swine kidney
T1 sequence (P22412 17-384): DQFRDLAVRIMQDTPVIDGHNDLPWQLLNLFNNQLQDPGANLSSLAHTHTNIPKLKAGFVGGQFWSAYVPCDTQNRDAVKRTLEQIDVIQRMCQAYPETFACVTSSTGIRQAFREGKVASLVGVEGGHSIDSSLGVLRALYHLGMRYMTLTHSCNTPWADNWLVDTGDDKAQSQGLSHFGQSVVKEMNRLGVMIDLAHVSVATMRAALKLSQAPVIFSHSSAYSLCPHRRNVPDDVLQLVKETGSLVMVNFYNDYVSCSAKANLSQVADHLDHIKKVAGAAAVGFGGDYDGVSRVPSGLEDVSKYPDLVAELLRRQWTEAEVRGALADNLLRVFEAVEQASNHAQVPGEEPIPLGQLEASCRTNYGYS
Description: The swine kidney (8 kg) was homogenized and the enzyme protein was allowed to precipitate. After a connective lipid was removed with acetone, the resultant material was made soluble by treatment with butanol and purified by the ammonium sulfate fraction method, thereby producing DHP-I enzyme from a 75% ammonium sulfate fraction. The DHP-I enzyme was then adjusted to give an enzyme concentration of 25 mg/10 ml (phosphate buffer, pH 7.1), and divided into 1 ml portions. The portions were frozen and stored at -40°C or less until use. Crystalline compound (20) obtained in Example 11 and amorphous compound (14) obtained in Example 5 below were used as a test compound. The test compound was adjusted in situ to give a concentration of 117 µM with a 50 mM sodium phosphate buffer solution (pH =7.1). Glycyl dehydrophenylalanine (Gl-dh-Ph) and imipenem were employed as control compounds, and they were adjusted in situ each to give a concentration of 117 µM with the same sodium phosphate buffer solution. The test compound according to the present invention and the control compounds were treated in substantially the same manner as (1) above. The incubation, however, was conducted at 37°C for 4.5 hours or for 24 hours. The degree of hydrolysis of the compounds each after the test periods was measured by the HPLC method.

Row | SMILES | MIC [1] | MIC ([2]; Proteus mirabilis IFO3849, MH agar, 37°C, 18 hours, read-out: MIC) | MIC [3] | MIC [4] | MIC (Salmonella typhi 901) | MIC ([5]; 18 hours) | MIC [6] | MIC [7] | MIC (Proteus vulgaris HX-19) | MIC ([8]; ENTERITIDIS, 18 h) | MIC [9] | MIC (Proteus vulgaris OX-19) | concentration to inhibit the growth of all the test microorganisms [10] | percent of strains inhibited at 6.25 µg/mL ([10]; concentration of 6.25 µg/ml, read-out: test microorganisms whose growth is inhibited) | MIC [2] | MIC ([5]; Serratia marcescens, IAM1184, 18 h, read-out: MIC) | MIC ([8]; 18 hours, read-out: MIC) | DEGREES OF HYDROLYSIS BY DHP-I ([11]; 4.5 hours) | DEGREES OF HYDROLYSIS BY DHP-I ([11]; 24 hours)
1 | C[C@@H](O)[C@H]1C(=O)N2C(C(=O)[O-])=C(SCc3cs[n+](C)n3)[C@H](C)[C@H]12 [Amorphous Compd. (14), (1R,5S,6S)-2-[(2-methyl-1,2,3-thiadiazolium-4-yl)methyl]thio-6-[(R)-1-hydroxyethyl]-1-methyl-carbapenem-3-carboxylate] | 1.56 µg/mL (≈ 4.39 µM) | 6.25 µg/mL (≈ 17.6 µM) | 0.39 µg/mL (≈ 1.1 µM) | 0.39 µg/mL (≈ 1.1 µM) | 0.025 µg/mL (≈ 0.0703 µM) | 0.2 µg/mL (≈ 0.563 µM) | 0.39 µg/mL (≈ 1.1 µM) | 0.39 µg/mL (≈ 1.1 µM) | 1.56 µg/mL (≈ 4.39 µM) | 1.56 µg/mL (≈ 4.39 µM) | 0.05 µg/mL (≈ 0.141 µM) | 1.56 µg/mL (≈ 4.39 µM) | – | – | – | – | – | – | –
2 | C[C@@H](O)[C@H]1C(=O)N2C(C(=O)O)=C(SCCN=CN)C[C@H]12 [Imipenem, imipenem] | 1.56 µg/mL (≈ 5.21 µM) | – | 0.78 µg/mL (≈ 2.61 µM) | 0.78 µg/mL (≈ 2.61 µM) | 0.1 µg/mL (≈ 0.334 µM) | – | 0.39 µg/mL (≈ 1.3 µM) | 0.78 µg/mL (≈ 2.61 µM) | 1.56 µg/mL (≈ 5.21 µM) | – | 0.78 µg/mL (≈ 2.61 µM) | 1.56 µg/mL (≈ 5.21 µM) | 12.5 µg/mL | ~98% | 6.25 µg/mL (≈ 20.9 µM) | 0.39 µg/mL (≈ 1.3 µM) | 0.78 µg/mL (≈ 2.61 µM) | 77.6 µM | * After 24 hours at 37°C, it has been found that most or all imipenem has been decomposed and nothing remained was detected.

Reference: patent EP0326640B1, “(1R,5S,6S)-2-substituted thio-6 (R)-1-hydroxyethyl -1-methyl-carbapenem - carboxylic acid derivatives” (LEDERLE (JAPAN) LTD., priority 1987, dated 1989)
